Assay results taken from patent publication US6727232B2, “Nucleoside peptide antibiotics of AA-896” (Wyeth Holdings Corporation, priority 2001, dated 2004).
In brackets after ≈: the same amount, converted by molar mass. Read-outs that look alike come from different tables or passages of the source.

Experiments:
Assay in all cases: Broth dilution MIC
Type in all cases: cell-based
[1] = tested on: CNS GC 4537; conditions: read-out: Antimicrobial Activity (MIC)
Protocol: (§1) The in vitro antibacterial activity of Example 1 through Example 20 is determined against a spectrum of Gram-positive and Gram-negative bacteria by a standard broth dilution method. Serial dilution of the compounds are made in Mueller-Hinton broth and inoculated with a bacterial suspension. The lowest concentration of compound that inhibited the growth of a bacterial strain after 18 hours of incubation at 35° C. is reported as the minimal inhibitory concentration (MIC) for that strain.

[2] = tested on: CNS GC 4538; conditions: read-out: Antimicrobial Activity (MIC)
Protocol: as §1

[3] = tested on: CNS GC 4547; conditions: read-out: Antimicrobial Activity (MIC)
Protocol: as §1

[4] = tested on: E. cloacae GC 3783; conditions: Enterobacter cloacae, read-out: Antimicrobial Activity (MIC)
Protocol: as §1

[5] = tested on: E. coli GC 2203; conditions: Escherichia coli, read-out: Antimicrobial Activity (MIC)
Protocol: as §1

[6] = tested on: E. coli GC 3226; conditions: Escherichia coli, read-out: Antimicrobial Activity (MIC)
Protocol: as §1

[7] = tested on: E. coli GC 4559; conditions: Escherichia coli, read-out: Antimicrobial Activity (MIC)
Protocol: as §1

[8] = tested on: E. coli GC 4560; conditions: Escherichia coli, read-out: Antimicrobial Activity (MIC)
Protocol: as §1

[9] = tested on: E. faecalis GC 2242; conditions: Enterococcus faecalis, read-out: Antimicrobial Activity (MIC)
Protocol: as §1

[10] = tested on: E. faecalis GC 4555; conditions: Enterococcus faecalis, read-out: Antimicrobial Activity (MIC)
Protocol: as §1

[11] = tested on: E. faecalis GC 842; conditions: Enterococcus faecalis, read-out: Antimicrobial Activity (MIC)
Protocol: as §1

[12] = tested on: K. pneumoniae GC 4534; conditions: Klebsiella pneumoniae, read-out: Antimicrobial Activity (MIC)
Protocol: as §1

[13] = tested on: M. morganii GC 4531; conditions: Morganella morganii, read-out: Antimicrobial Activity (MIC)
Protocol: as §1

[14] = tested on: P. aeruginosa GC 2214; conditions: Pseudomonas aeruginosa, read-out: Antimicrobial Activity (MIC)
Protocol: as §1

[15] = tested on: P. aeruginosa GC 4532; conditions: Pseudomonas aeruginosa, read-out: Antimicrobial Activity (MIC)
Protocol: as §1

[16] = tested on: P. rettgeri GC 4530; conditions: Providencia rettgeri, read-out: Antimicrobial Activity (MIC)
Protocol: as §1

[17] = tested on: S. aureus GC 1131; conditions: Staphylococcus aureus, read-out: Antimicrobial Activity (MIC)
Protocol: as §1

[18] = tested on: S. aureus GC 2216; conditions: Staphylococcus aureus, read-out: Antimicrobial Activity (MIC)
Protocol: as §1

[19] = tested on: S. aureus GC 4536; conditions: Staphylococcus aureus, read-out: Antimicrobial Activity (MIC)
Protocol: as §1

[20] = tested on: S. marcescens GC 4077; conditions: Serratia marcescens, read-out: Antimicrobial Activity (MIC)
Protocol: as §1

[21] = CNS GC 4537, Mueller-Hinton broth, 18 hours at 35° C.
[22] = CNS GC 4538, Mueller-Hinton broth, 18 hours at 35° C.
[23] = CNS GC 4547, Mueller-Hinton broth, 18 hours at 35° C.
[24] = GC3783, E. cloacae GC 3783, Mueller-Hinton broth, 18 hours at 35° C.
[25] = GC2203, E. coli GC 2203, Mueller-Hinton broth, 18 hours at 35° C.
[26] = GC3226, E. coli GC 3226, Mueller-Hinton broth, 18 hours at 35° C.
[27] = GC4559, E. coli GC 4559, Mueller-Hinton broth, 18 hours at 35° C.
[28] = GC2242, E. faecalis GC 2242, Mueller-Hinton broth, 18 hours at 35° C.
[29] = GC4555, E. faecalis GC 4555, Mueller-Hinton broth, 18 hours at 35° C.
[30] = GC842, E. faecalis GC 842, Mueller-Hinton broth, 18 hours at 35° C.
[31] = GC4534, K. pneumoniae GC 4534, Mueller-Hinton broth, 18 hours at 35° C.
[32] = GC4531, M. morganii GC 4531, Mueller-Hinton broth, 18 hours at 35° C.
[33] = GC2214, P. aeruginosa GC 2214, Mueller-Hinton broth, 18 hours at 35° C.
[34] = GC4532, P. aeruginosa GC 4532, Mueller-Hinton broth, 18 hours at 35° C.
[35] = GC4530, P. rettgeri GC 4530, Mueller-Hinton broth, 18 hours at 35° C.
[36] = GC1131, S. aureus GC 1131, Mueller-Hinton broth, 18 hours at 35° C.
[37] = GC2216, S. aureus GC 2216, Mueller-Hinton broth, 18 hours at 35° C.
[38] = GC4536, S. aureus GC 4536, Mueller-Hinton broth, 18 hours at 35° C.
[39] = GC4077, S. marcescens GC 4077, Mueller-Hinton broth, 18 hours at 35° C.

SMILES	MIC [1, 21] [µg/mL]	MIC [2, 22] [µg/mL]	MIC [3, 23] [µg/mL]	MIC [4, 24] [µg/mL]	MIC [5, 25] [µg/mL]	MIC [6, 26] [µg/mL]	MIC [7, 27] [µg/mL]	MIC [9, 28] [µg/mL]	MIC [10, 29] [µg/mL]	MIC [11, 30] [µg/mL]	MIC [12, 31] [µg/mL]	MIC [13, 32] [µg/mL]	MIC [14, 33] [µg/mL]	MIC [15, 34] [µg/mL]	MIC [16, 35] [µg/mL]	MIC [17, 36] [µg/mL]	MIC [18, 37] [µg/mL]	MIC [19, 38] [µg/mL]	MIC [20, 39] [µg/mL]	MIC ([8]; GC4560, 18 h) [µg/mL]	other results
CCCCCCCCCCCCNC(=O)NC[C@H]1OC(O[C@H](C2C(=O)N(CCCCCCCCCCCC)C(=O)N2CCCNC(=O)C(NC(=O)C(NC(=O)NC(C(=O)O)C(C)C)C2CCNC(=N)N2)C(O)C(C)C)[C@H]2O[C@@H](n3ccc(=O)[nH]c3=O)[C@H](O)[C@@H]2O)[C@H](OC)[C@H]1O (stereo partly drawn) [Example 15, 14-[5-((R)-{(2S,3S,4R,5R)-5-[2,4-Dioxo-3,4-dihydro-1 (2H)-pyrimidinyl]-3,4-dihydroxytetrahydro-2-furanyl}{[(3R,4S,5R)-5-({[(dodecylamino)carbonyl]amino}methyl)-4-hydroxy-3-methoxytetrahydro-2-furanyl]oxy}methyl)-3-dodecyl-2,4-dioxo-1-imidazolidinyl]-9-(1-hydroxy-2-methylpropyl)-6-(2-iminohexahydro-4-pyrimidinyl)-2-isopropyl-4,7,10-trioxo-3,5,8,11-tetraazatetradecan-1-oic Acid]	> 32	> 32	> 32	> 32	> 32	> 32	> 32	> 32	> 32	> 32	> 32	> 32	> 32	> 32	> 32	> 32	> 32	> 32	> 32		MIC ([8]; GC4560, E. coli GC 4560, Mueller-Hinton broth, 18 hours at 35° C.): > 32 µg/mL
CO[C@H]1C(O[C@H](C2C(=O)N(c3ccc(F)cc3)C(=O)N2CCCNC(=O)C(NC(=O)C(NC(=O)NC(C(=O)O)C(C)C)C2CCNC(=N)N2)C(O)C(C)C)[C@H]2O[C@@H](n3ccc(=O)[nH]c3=O)[C@H](O)[C@@H]2O)O[C@H](CN)[C@@H]1O (stereo partly drawn) [Example 1, 14-[5-((R)-{[(3R,4S,5R)-5-(Aminomethyl)-4-hydroxy-3-methoxytetrahydro-2-furanyl]oxy}{(2S,3S,4R,5R)-5-[2,4-dioxo-3,4-dihydro-1 (2H)-pyrimidinyl]-3,4-dihydroxytetrahydro-2-furanyl}methyl)-3-(4-fluorophenyl)-2,4-dioxo-1-imidazolidinyl]-9-(1-hydroxy-2-methylpropyl)-6-(2-iminohexahydro-4-pyrimidinyl)-2-isopropyl-4,7,10-trioxo-3,5,8,11-tetraazatetradecan-1-oic acid]																				64 (≈ 60.1 µM)	MIC ([1]; 18 h): > 32 µg/mL; MIC ([2]; 18 h): 32 µg/mL (≈ 30 µM); MIC ([3]; 18 h): > 32 µg/mL; MIC ([4]; GC3783, 18 h): > 32 µg/mL; MIC ([5]; GC2203, 18 h): > 32 µg/mL; MIC ([6]; GC3226, 18 h): > 32 µg/mL; MIC ([7]; GC4559, 18 h): > 32 µg/mL; MIC ([9]; GC2242, 18 h): > 32 µg/mL; MIC ([10]; GC4555, 18 h): > 32 µg/mL; MIC ([11]; GC842, 18 h): > 32 µg/mL; MIC ([12]; GC4534, 18 h): > 32 µg/mL; MIC ([13]; GC4531, 18 h): > 32 µg/mL; MIC ([14]; GC2214, 18 h): > 32 µg/mL; MIC ([15]; GC4532, 18 h): > 32 µg/mL; MIC ([16]; GC4530, 18 h): > 32 µg/mL; MIC ([17]; GC1131, 18 h): > 32 µg/mL; MIC ([18]; GC2216, 18 h): > 32 µg/mL; MIC ([19]; GC4536, 18 h): > 32 µg/mL; MIC ([20]; GC4077, 18 h): > 32 µg/mL
CCCCCNC[C@H]1OC(O[C@H](C(NCCCNC(=O)C(NC(=O)C(NC(=O)NC(C(=O)O)C(C)C)C2CCNC(=N)N2)C(O)C(C)C)C(=O)O)[C@H]2O[C@@H](n3ccc(=O)[nH]c3=O)[C@H](O)[C@@H]2O)[C@H](OC)[C@H]1O (stereo partly drawn) [Example 18, 16-[(R)-{(2S,3S,4R,5R)-5-[2,4-Dioxo-3,4-dihydro-1 (2H)-pyrimidinyl]-3,4-dihydroxytetrahydro-2-furanyl}({(3R,4S,5R)-4-hydroxy-3-methoxy-5-[(pentylamino)methyl]tetrahydro-2-furanyl}oxy)methyl]-9-(1-hydroxy-2-methylpropyl)-6-(2-iminohexahydro-4-pyrimidinyl)-2-isopropyl-4,7,10-trioxo-3,5,8,11,15-pentaazaheptadecane-1,17-dioic Acid]	> 32	> 32	> 32	> 32	> 32	> 32	> 32	> 32	> 32	> 32	> 32	> 32	> 32	> 32	> 32	> 32	> 32	> 32	> 32	> 32	
CO[C@H]1C(O[C@H](C(C(=O)O)N(CCCNC(=O)C(NC(=O)C(NC(=O)NC(C(=O)O)C(C)C)C2CCNC(=N)N2)C(O)C(C)C)Cc2ccccc2)[C@H]2O[C@@H](n3ccc(=O)[nH]c3=O)[C@H](O)[C@@H]2O)O[C@H](CNCc2ccccc2)[C@@H]1O (stereo partly drawn) [Example 20B, 15-Benzyl-16-((R)-({(3R,4S,5R)-5-[(benzylamino)methyl]-4-hydroxy-3-methoxytetrahydro-2-furanyl}oxy){(2S,3S,4R,5R)-5-[2,4-dioxo-3,4-dihydro-1 (2H)-pyrimidinyl]-3,4-dihydroxytetrahydro-2-furanyl}methyl)-9-(1-hydroxy-2-methylpropyl)-6-(2-iminohexahydro-4-pyrimidinyl)-2-isopropyl-4,7,10-trioxo-3,5,8,11,15-pentaazaheptadecane-1,17-dioic Acid]	> 32	> 32	> 32	> 32	> 32	> 32	> 32	> 32	> 32	> 32	> 32	> 32	> 32	> 32	> 32	> 32	> 32	> 32	> 32	32 (≈ 28.4 µM)	
